Assay results reported in patent US20230053540A1, “TREATMENT OF LIVER INJURY” (Massachusetts Institute of Technology, priority 2019, published 2023).

Test system: hepatocytes
Experiment: Seq-Well scRNA-Seq of hepatocytes after APAP overdose (signature scores, DEG vs untreated)
Assay type: in vivo, mouse

CC(=O)Nc1ccc(O)cc1 [APAP, acetaminophen]
Rpl34 logFC (APAP vs UT, A24logFC): −0.2976
Rps24 logFC (APAP vs UT, A24logFC): −0.2625
Rraga logFC (APAP vs UT, A24logFC): 0.2626
Rsl1d1 logFC (APAP vs UT, A24logFC): 0.3461
Selo logFC (APAP vs UT, A24logFC): −0.2574
Sema4g logFC (APAP vs UT, A24logFC): −0.2505
Serbp1 logFC (APAP vs UT, A24logFC): 0.3227
Sf3b1 logFC (APAP vs UT, A24logFC): 0.2888
Sigmar1 logFC (APAP vs UT, A24logFC): −0.3055
Slc16a2 logFC (APAP vs UT, A24logFC): −0.252
Slc16a10 logFC (APAP vs UT, A24logFC): −0.2548
Slc25a51 logFC (APAP vs UT, A24logFC): 0.264
Slc26a1 logFC (APAP vs UT, A24logFC): −0.2817
Slc30a1 logFC (APAP vs UT, A24logFC): 0.2506
Slc35d1 logFC (APAP vs UT, A24logFC): 0.3094
Smoc1 logFC (APAP vs UT, A24logFC): 0.2616
Spag9 logFC (APAP vs UT, A24logFC): 0.3188
Spcs1 logFC (APAP vs UT, A24logFC): −0.2629
Sptan1 logFC (APAP vs UT, A24logFC): 0.3127
Srd5a1 logFC (APAP vs UT, A24logFC): −0.2773
Srrm2 logFC (APAP vs UT, A24logFC): 0.3282
St3gal4 logFC (APAP vs UT, A24logFC): 0.275
Swi5 logFC (APAP vs UT, A24logFC): −0.2621
Tab2 logFC (APAP vs UT, A24logFC): 0.3484
Tbca logFC (APAP vs UT, A24logFC): −0.2726
Tln1 logFC (APAP vs UT, A24logFC): 0.321
Tmem86b logFC (APAP vs UT, A24logFC): −0.2582
Tmem150a logFC (APAP vs UT, A24logFC): −0.2535
Tmem242 logFC (APAP vs UT, A24logFC): −0.2725
Tpi1 logFC (APAP vs UT, A24logFC): −0.2616
Trip11 logFC (APAP vs UT, A24logFC): 0.3479
Ubr5 logFC (APAP vs UT, A24logFC): 0.3057
Ugt3a2 logFC (APAP vs UT, A24logFC): −0.2586
Usp7 logFC (APAP vs UT, A24logFC): 0.2873
Usp34 logFC (APAP vs UT, A24logFC): 0.2859
Xrn2 logFC (APAP vs UT, A24logFC): 0.2985
Ythdc1 logFC (APAP vs UT, A24logFC): 0.2641
Zfand5 logFC (APAP vs UT, A24logFC): 0.2882
Zfp106 logFC (APAP vs UT, A24logFC): 0.3369
Zfp259 logFC (APAP vs UT, A24logFC): 0.2556
2810007J24Rik avg_logFC (APAP vs. UT): −0.2871
2810007J24Rik pct.1 (APAP vs. UT): 0.909
Aadac avg_logFC (APAP vs. UT): −0.3243
Aadac pct.1 (APAP vs. UT): 0.849
Abca6 avg_logFC (APAP vs. UT): 0.2637
Abca6 pct.1 (APAP vs. UT): 0.679
Abcb4 avg_logFC (APAP vs. UT): 0.2759
Abcb4 pct.1 (APAP vs. UT): 0.78
Acaa1b avg_logFC (APAP vs. UT): −0.3158
Acaa1b pct.1 (APAP vs. UT): 0.883
Adh1 avg_logFC (APAP vs. UT): −0.3122
Adh1 pct.1 (APAP vs. UT): 0.941
Agpat6 avg_logFC (APAP vs. UT): 0.2706
Agpat6 pct.1 (APAP vs. UT): 0.695
Agt avg_logFC (APAP vs. UT): 0.3007
Agt pct.1 (APAP vs. UT): 0.859
Akr1c6 avg_logFC (APAP vs. UT): −0.5047
Akr1c6 pct.1 (APAP vs. UT): 0.92
Aldh9a1 avg_logFC (APAP vs. UT): 0.2715
Aldh9a1 pct.1 (APAP vs. UT): 0.836
Aldob avg_logFC (APAP vs. UT): 0.2576
Aldob pct.1 (APAP vs. UT): 0.997
Angptl3 avg_logFC (APAP vs. UT): 0.414
Angptl3 pct.1 (APAP vs. UT): 0.961
Apoa4 avg_logFC (APAP vs. UT): 0.5984
Apoa4 pct.1 (APAP vs. UT): 0.574
Apob avg_logFC (APAP vs. UT): 0.2678
Apob pct.1 (APAP vs. UT): 0.989
Apoc2 avg_logFC (APAP vs. UT): 0.5107
Apoc2 pct.1 (APAP vs. UT): 0.851
Arhgap5 avg_logFC (APAP vs. UT): 0.2875
Arhgap5 pct.1 (APAP vs. UT): 0.647
Arhgef12 avg_logFC (APAP vs. UT): 0.2783
Arhgef12 pct.1 (APAP vs. UT): 0.597
Asl avg_logFC (APAP vs. UT): 0.3374
Asl pct.1 (APAP vs. UT): 0.859
Atp1a1 avg_logFC (APAP vs. UT): 0.2871
Atp1a1 pct.1 (APAP vs. UT): 0.623
Atp2a2 avg_logFC (APAP vs. UT): 0.3031
Atp2a2 pct.1 (APAP vs. UT): 0.666
Bach1 avg_logFC (APAP vs. UT): 0.2613
Bach1 pct.1 (APAP vs. UT): 0.356
Bche avg_logFC (APAP vs. UT): 0.2566
Bche pct.1 (APAP vs. UT): 0.562
Brd2 avg_logFC (APAP vs. UT): 0.2856
Brd2 pct.1 (APAP vs. UT): 0.59
Btg2 avg_logFC (APAP vs. UT): 0.2635
Btg2 pct.1 (APAP vs. UT): 0.401
C8g avg_logFC (APAP vs. UT): −0.2582
C8g pct.1 (APAP vs. UT): 0.859
Car3 avg_logFC (APAP vs. UT): −0.3762
Car3 pct.1 (APAP vs. UT): 0.956
Cdo1 avg_logFC (APAP vs. UT): 0.2665
Cdo1 pct.1 (APAP vs. UT): 0.964
Ces3a avg_logFC (APAP vs. UT): −0.3174
Ces3a pct.1 (APAP vs. UT): 0.93
Ces3b avg_logFC (APAP vs. UT): −0.284
Ces3b pct.1 (APAP vs. UT): 0.727
Chchd2 avg_logFC (APAP vs. UT): −0.2575
Chchd2 pct.1 (APAP vs. UT): 0.874
Chchd10 avg_logFC (APAP vs. UT): 0.3833
Chchd10 pct.1 (APAP vs. UT): 0.925
Chka avg_logFC (APAP vs. UT): 0.2892
Chka pct.1 (APAP vs. UT): 0.312
Cite avg_logFC (APAP vs. UT): 0.3077
Cite pct.1 (APAP vs. UT): 0.602
Cml1 avg_logFC (APAP vs. UT): −0.2953
Cml1 pct.1 (APAP vs. UT): 0.709
Cox4i1 avg_logFC (APAP vs. UT): −0.2627
Cox4i1 pct.1 (APAP vs. UT): 0.941
Cox6c avg_logFC (APAP vs. UT): −0.3432
Cox6c pct.1 (APAP vs. UT): 0.808
Cox7a2 avg_logFC (APAP vs. UT): −0.2511
Cox7a2 pct.1 (APAP vs. UT): 0.722
Cp avg_logFC (APAP vs. UT): 0.3758
Cp pct.1 (APAP vs. UT): 0.965
Cpt1a avg_logFC (APAP vs. UT): 0.285
Cpt1a pct.1 (APAP vs. UT): 0.775
Creld2 avg_logFC (APAP vs. UT): 0.2626
Creld2 pct.1 (APAP vs. UT): 0.487
Csde1 avg_logFC (APAP vs. UT): 0.2739
Csde1 pct.1 (APAP vs. UT): 0.749
Cyb5 avg_logFC (APAP vs. UT): −0.2845
Cyb5 pct.1 (APAP vs. UT): 0.972
Cyp4a10 avg_logFC (APAP vs. UT): 0.7159
Cyp4a10 pct.1 (APAP vs. UT): 0.727
Cyp4a14 avg_logFC (APAP vs. UT): 1.281
Cyp4a14 pct.1 (APAP vs. UT): 0.714
D17Wsu92e avg_logFC (APAP vs. UT): 0.2809
D17Wsu92e pct.1 (APAP vs. UT): 0.736
Ddx3x avg_logFC (APAP vs. UT): 0.2753
Ddx3x pct.1 (APAP vs. UT): 0.689
Ddx21 avg_logFC (APAP vs. UT): 0.2576
Dennd5b avg_logFC (APAP vs. UT): 0.2562
Dennd5b pct.1 (APAP vs. UT): 0.55
Dhcr24 avg_logFC (APAP vs. UT): 0.3629
Dhcr24 pct.1 (APAP vs. UT): 0.883
Eif1a avg_logFC (APAP vs. UT): 0.2667
Eif1a pct.1 (APAP vs. UT): 0.492
Eif4g2 avg_logFC (APAP vs. UT): 0.3407
Eif4g2 pct.1 (APAP vs. UT): 0.824
Ell2 avg_logFC (APAP vs. UT): 0.2572
Ell2 pct.1 (APAP vs. UT): 0.609
Elovl3 avg_logFC (APAP vs. UT): −0.5221
Elovl3 pct.1 (APAP vs. UT): 0.65
Epb4.1 avg_logFC (APAP vs. UT): 0.2567
Epb4.1 pct.1 (APAP vs. UT): 0.527
Etf1 pct.1 (APAP vs. UT): 0.61
Etnppl avg_logFC (APAP vs. UT): 0.2637
Etnppl pct.1 (APAP vs. UT): 0.647
Fabp1 avg_logFC (APAP vs. UT): −0.3078
Fabp1 pct.1 (APAP vs. UT): 0.992
Fam134b avg_logFC (APAP vs. UT): 0.2987
Fam134b pct.1 (APAP vs. UT): 0.589
Fga avg_logFC (APAP vs. UT): 0.4335
Fga pct.1 (APAP vs. UT): 0.996
Fgb avg_logFC (APAP vs. UT): 0.3905
Fgb pct.1 (APAP vs. UT): 0.999
Fgg avg_logFC (APAP vs. UT): 0.3391
Fgg pct.1 (APAP vs. UT): 0.997
Fgl1 avg_logFC (APAP vs. UT): 0.3611
Fgl1 pct.1 (APAP vs. UT): 0.861
Fos avg_logFC (APAP vs. UT): 0.2633
Fos pct.1 (APAP vs. UT): 0.609
Gadd45g avg_logFC (APAP vs. UT): −0.3405
Gadd45g pct.1 (APAP vs. UT): 0.503
Gclc avg_logFC (APAP vs. UT): 0.671
Gclc pct.1 (APAP vs. UT): 0.839
Gfra1 avg_logFC (APAP vs. UT): 0.2536
Gfra1 pct.1 (APAP vs. UT): 0.676
Gjb2 avg_logFC (APAP vs. UT): 0.2803
Gjb2 pct.1 (APAP vs. UT): 0.725
Gm2a avg_logFC (APAP vs. UT): 0.2814
Gm2a pct.1 (APAP vs. UT): 0.599
Gm13775 avg_logFC (APAP vs. UT): −1.061
Gm13775 pct.1 (APAP vs. UT): 0.306
Gm15564 avg_logFC (APAP vs. UT): 1.171
Gm15564 pct.1 (APAP vs. UT): 0.981
Gm23935 avg_logFC (APAP vs. UT): 0.5701
Gm23935 pct.1 (APAP vs. UT): 0.954
Gm24601 avg_logFC (APAP vs. UT): 0.4962
Gm24601 pct.1 (APAP vs. UT): 0.198
Gm26917 avg_logFC (APAP vs. UT): 0.395
Gm26917 pct.1 (APAP vs. UT): 0.253
Gm26924 avg_logFC (APAP vs. UT): 0.8508
Gm26924 pct.1 (APAP vs. UT): 1
Grip2 avg_logFC (APAP vs. UT): 0.3797
Grip2 pct.1 (APAP vs. UT): 0.158
Grn avg_logFC (APAP vs. UT): 0.3692
Grn pct.1 (APAP vs. UT): 0.62
Gstm3 avg_logFC (APAP vs. UT): −0.4736
Gstm3 pct.1 (APAP vs. UT): 0.269
Gyk avg_logFC (APAP vs. UT): 0.3144
Gyk pct.1 (APAP vs. UT): 0.583
Hbb-bs avg_logFC (APAP vs. UT): 1.332
Hbb-bs pct.1 (APAP vs. UT): 0.125
Hbb-bt avg_logFC (APAP vs. UT): 0.4482
Hbb-bt pct.1 (APAP vs. UT): 0.052
Hdlbp avg_logFC (APAP vs. UT): 0.274
Hdlbp pct.1 (APAP vs. UT): 0.828
Herpud1 avg_logFC (APAP vs. UT): 0.2973
Herpud1 pct.1 (APAP vs. UT): 0.842
